Measurements: article PMC7383607, “Kinetic and structural studies of Trypanosoma and Leishmania phosphofructokinases show evolutionary divergence and identify AMP as a switch regulating glycolysis versus gluconeogenesis” (The Febs Journal, 2020)

T1: TcPFK (Trypanosoma cruzi phosphofructokinase) (Trypanosoma cruzi, UniProt Q4E657)
T1 construct: gene pfk; recombinant, E. coli, purified; N-terminal His6 tag (given for SPR); glycosomal homotetramer
T1 sequence (Q4E657 1-485): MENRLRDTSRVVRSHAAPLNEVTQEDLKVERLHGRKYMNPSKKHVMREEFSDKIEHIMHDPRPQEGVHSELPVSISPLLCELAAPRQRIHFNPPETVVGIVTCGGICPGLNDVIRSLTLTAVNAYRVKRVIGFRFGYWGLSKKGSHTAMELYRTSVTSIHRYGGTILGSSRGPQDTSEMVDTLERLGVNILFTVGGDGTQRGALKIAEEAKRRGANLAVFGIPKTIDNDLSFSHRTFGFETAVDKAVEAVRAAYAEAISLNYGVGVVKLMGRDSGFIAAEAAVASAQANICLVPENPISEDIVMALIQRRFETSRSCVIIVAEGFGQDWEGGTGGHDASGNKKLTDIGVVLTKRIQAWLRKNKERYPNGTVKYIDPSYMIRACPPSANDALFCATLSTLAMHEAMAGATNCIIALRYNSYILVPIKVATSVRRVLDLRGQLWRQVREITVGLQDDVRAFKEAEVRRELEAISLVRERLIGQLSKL

T2: LiPFK (Leishmania infantum phosphofructokinase) (Leishmania infantum, UniProt A4I4W5)
T2 construct: gene pfk; recombinant, E. coli, purified; N-terminal His6 tag (given for SPR); glycosomal homotetramer
T2 sequence (A4I4W5 1-486): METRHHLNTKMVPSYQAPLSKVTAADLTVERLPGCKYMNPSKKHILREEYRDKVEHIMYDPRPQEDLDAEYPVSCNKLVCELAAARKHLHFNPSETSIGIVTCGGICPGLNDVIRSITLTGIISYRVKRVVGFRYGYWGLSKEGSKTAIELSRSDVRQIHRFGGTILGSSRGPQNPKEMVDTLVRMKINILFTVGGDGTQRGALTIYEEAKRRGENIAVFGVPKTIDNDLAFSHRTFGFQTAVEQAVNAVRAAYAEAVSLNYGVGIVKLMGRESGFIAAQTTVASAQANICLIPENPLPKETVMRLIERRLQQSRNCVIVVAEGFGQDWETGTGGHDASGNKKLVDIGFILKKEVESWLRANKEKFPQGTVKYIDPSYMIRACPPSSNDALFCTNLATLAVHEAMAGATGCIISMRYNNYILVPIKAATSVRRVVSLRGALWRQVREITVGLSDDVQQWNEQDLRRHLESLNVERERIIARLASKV

T3: TbPFK (Trypanosoma brucei phosphofructokinase) (Trypanosoma brucei, UniProt O15648)
T3 construct: gene pfk; recombinant, E. coli, purified; N-terminal His6 tag (for SPR and reaction order tests); tetramer of 53-kDa subunits
T3 sequence (O15648 1-487): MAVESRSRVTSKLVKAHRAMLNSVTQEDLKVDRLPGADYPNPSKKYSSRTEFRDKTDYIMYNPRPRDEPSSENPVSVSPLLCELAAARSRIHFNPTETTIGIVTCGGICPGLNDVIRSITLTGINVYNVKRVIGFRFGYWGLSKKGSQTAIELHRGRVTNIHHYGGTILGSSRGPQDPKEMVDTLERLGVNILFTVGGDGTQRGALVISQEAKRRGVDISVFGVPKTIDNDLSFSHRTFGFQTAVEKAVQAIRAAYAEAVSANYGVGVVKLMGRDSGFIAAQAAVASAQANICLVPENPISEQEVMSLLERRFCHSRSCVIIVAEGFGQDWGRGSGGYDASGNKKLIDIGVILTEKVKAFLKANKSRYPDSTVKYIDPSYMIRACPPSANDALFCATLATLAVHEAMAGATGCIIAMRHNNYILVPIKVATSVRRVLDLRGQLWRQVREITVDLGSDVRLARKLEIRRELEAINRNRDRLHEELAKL

B1: Trypanosoma brucei phosphofructokinase (enzyme)
chain: T3 sequence (O15648 1-487)
notes: ATP-dependent phosphofructokinase of Trypanosoma brucei; 53-kDa subunit; residues up to 486 are named in the structure; The N-terminal His6 tag is stated for the SPR experiments and 'His-tagged TbPFK' for the kinetics; also called TbPFK; T. brucei PFK
B2: TcPFK (Trypanosoma cruzi phosphofructokinase) (Trypanosoma cruzi strain CL Brener) (protein)
chain: T1 sequence (Q4E657 1-485)
notes: recombinant, E. coli, purified; N-terminal His6 tag (given for SPR); glycosomal homotetramer

Legend:
[1] = biological target: T1, TcPFK (Trypanosoma cruzi phosphofructokinase); assay: SPR steady state, His6-PFK captured on Ni-NTA chip; format: binding
Description: SPR steady state, His6-PFK captured on Ni-NTA chip on TcPFK (Trypanosoma cruzi phosphofructokinase)

[2] = biological target: T2, LiPFK (Leishmania infantum phosphofructokinase); assay: SPR steady state, His6-PFK captured on Ni-NTA chip; format: binding
Description: SPR steady state, His6-PFK captured on Ni-NTA chip on LiPFK (Leishmania infantum phosphofructokinase)

[3] = biological target: T3, TbPFK (Trypanosoma brucei phosphofructokinase); assay: SPR steady state, His6-PFK captured on Ni-NTA chip; format: binding
Description: SPR steady state, His6-PFK captured on Ni-NTA chip on TbPFK (Trypanosoma brucei phosphofructokinase)

[4] = biological target: the molecule itself; assay: crystal structure; TbPFK at 6 mg/mL in gel filtration buffer with 1 mM F16BP, 1 mM AMP and 500 µM PFK inhibitor, hanging drop, 18 °C, 9.5% PEG 8000, 0.1 M sodium cacodylate pH 7.4; only AMP seen bound; two tetramers in the asymmetric unit
[5] = substrate: Nc1nc2c(ncn2[C@@H]2O[C@H](COP(=O)(O)OP(=O)(O)OP(=O)(O)O)[C@@H](O)[C@H]2O)c(=O)[nH]1; assay: pyruvate kinase-lactate dehydrogenase coupled assay, A340, sigmoidal fit; format: biochemical, Trypanosoma brucei; details: 3 mM F6P, no AMP, 10 mM MgCl2, 100 mM KCl, pH 7.4, 25 °C
Description: pyruvate kinase-lactate dehydrogenase coupled assay, A340, sigmoidal fit on TbPFK (Trypanosoma brucei phosphofructokinase)

[6] = substrate: Nc1nc2c(ncn2[C@@H]2O[C@H](COP(=O)(O)OP(=O)(O)OP(=O)(O)O)[C@@H](O)[C@H]2O)c(=O)[nH]1; assay: as above; format: biochemical, Trypanosoma cruzi; details: 3 mM F6P, no AMP, 10 mM MgCl2, 100 mM KCl, pH 7.4, 25 °C
Description: pyruvate kinase-lactate dehydrogenase coupled assay, A340, sigmoidal fit on TcPFK (Trypanosoma cruzi phosphofructokinase)

Row | Molecule | Kd [1] | Kd [2] | Kd [3] | also measured
1 | Nc1ncnc2c1ncn2[C@@H]1O[C@H](COP(=O)(O)OP(=O)(O)O)[C@@H](O)[C@H]1O [ADP] | 730 µM | 160 µM | 560 µM | –
2 | Nc1ncnc2c1ncn2[C@@H]1O[C@H](COP(=O)(O)O)[C@@H](O)[C@H]1O [AMP] | 1040 µM | 2300 µM | 470 µM | –
3 | Nc1ncnc2c1ncn2[C@@H]1O[C@H](COP(=O)(O)OP(=O)(O)OP(=O)(O)O)[C@@H](O)[C@H]1O [ATP] | 35.4 µM | 16.8 µM | 15.8 µM | –
4 | B1 | – | – | – | stoichiometry N [4]: 4; K0.5 [5]: 123 (8) μM; Vmax [5]: 38.3 µmol/min/mg; kcat [5]: 35.6 s⁻¹
5 | B2 | – | – | – | K0.5 [6]: 195 (14) μM; Vmax [6]: 63 µmol/min/mg; kcat [6]: 58.7 s⁻¹
